According to ChEMBL document CHEMBL2203105, “Structure-related cytotoxic activity of derivatives from kulokekahilide-2, a cyclodepsipeptide in Hawaiian marine mollusk” (Bioorg Med Chem Lett, 2012):

How the values were obtained:
K562 = assay: Cytotoxicity against human K562 cells assessed as cell viability after 72 hrs by celltiter-blue assay; format: functional, cell-based; details: K562, 72 h
MCF7 = assay: Cytotoxicity against human MCF7 cells assessed as cell viability after 72 hrs by celltiter-blue assay; format: functional, cell-based; details: MCF7, 72 h
A549 = assay: Cytotoxicity against human A549 cells assessed as cell viability after 72 hrs by celltiter-blue assay; format: functional, cell-based; details: A549, 72 h
[1] = Chemical stability of the compound in DMSO by NMR analysis; format: physicochemical

Structure (SMILES)	IC50 (K562)	IC50 (MCF7)	IC50 (A549)	Stability [1]
C/C=C(\C)[C@H]1OC(=O)[C@@H](C)NC(=O)[C@H]([C@@H](C)CC)NC(=O)CN(C)C(=O)[C@@H](Cc2ccccc2)N(C)C(=O)[C@H](C)NC(=O)[C@@H](CC(C)C)OC(=O)/C(C)=C/C[C@H](O)[C@@H]1C	0.0031 nM	0.22 nM	0.0021 nM	Stable
C/C=C(\C)[C@@H](O)[C@@H](C)[C@@H]1C/C=C(\C)C(=O)O[C@H](CC(C)C)C(=O)N[C@@H](C)C(=O)N(C)[C@H](Cc2ccccc2)C(=O)N(C)CC(=O)N[C@@H]([C@@H](C)CC)C(=O)N[C@H](C)C(=O)O1	0.012 nM	0.29 nM	0.0014 nM	Stable
C/C=C(\C)[C@H]1OC(=O)[C@@H](C)NC(=O)[C@H]([C@@H](C)CC)NC(=O)CN(C)C(=O)[C@@H](Cc2ccccc2)N(C)C(=O)[C@H](C)NC(=O)[C@@H](CC(C)C)OC(=O)/C(C)=C/C[C@H](OCSC)[C@@H]1C	0.0063 nM	6.3 nM	0.00019 nM	
C/C=C(\C)[C@H]1OC(=O)[C@@H](C)NC(=O)[C@H]([C@@H](C)CC)NC(=O)CN(C)C(=O)[C@@H](Cc2ccccc2)N(C)C(=O)[C@H](C)NC(=O)[C@@H](CC(C)C)OC(=O)/C(C)=C/C[C@H](OC(=O)c2ccccc2)[C@@H]1C	1.8 nM	2.9 nM	0.00058 nM	
CC[C@H](C)[C@H](NC(=O)CN(C)C(=O)[C@@H](Cc1ccccc1)N(C)C(=O)[C@H](C)NC(=O)[C@H](O)CC(C)C)C(=O)O	> 10000 nM	> 10000 nM	> 10000 nM	
C/C=C(\C)[C@H]1OC(=O)[C@@H](C)NC(=O)[C@H]([C@@H](C)CC)NC(=O)CN(C)C(=O)[C@@H](Cc2ccccc2)N(C)C(=O)[C@@H](C)NC(=O)[C@@H](CC(C)C)OC(=O)/C(C)=C/C[C@H](O)[C@@H]1C	584 nM	1640 nM	1040 nM	
C/C=C(\C)[C@@H](O)[C@@H](C)[C@@H]1C/C=C(\C)C(=O)O[C@H](CC(C)C)C(=O)N[C@H](C)C(=O)N(C)[C@H](Cc2ccccc2)C(=O)N(C)CC(=O)N[C@@H]([C@@H](C)CC)C(=O)N[C@H](C)C(=O)O1	925 nM	3690 nM	1080 nM	
C/C=C(\C)[C@H]1OC(=O)[C@@H](C)NC(=O)[C@H]([C@@H](C)CC)NC(=O)CN(C)C(=O)[C@@H](Cc2ccccc2)N(C)C(=O)[C@@H](C)NC(=O)[C@@H](CC(C)C)OC(=O)/C(C)=C/C[C@H](OCSC)[C@@H]1C	1190 nM	> 10000 nM	4340 nM	
C/C=C(\C)[C@H]1OC(=O)[C@@H](C)NC(=O)[C@H]([C@@H](C)CC)NC(=O)CN(C)C(=O)[C@@H](Cc2ccc(Cl)cc2)N(C)C(=O)[C@H](C)NC(=O)[C@@H](CC(C)C)OC(=O)/C(C)=C/C[C@H](O)[C@@H]1C	1.1e-05 nM	0.003 nM	1e-05 nM	
C/C=C(\C)[C@@H](O)[C@@H](C)[C@@H]1C/C=C(\C)C(=O)O[C@H](CC(C)C)C(=O)N[C@@H](C)C(=O)N(C)[C@H](Cc2ccc(Cl)cc2)C(=O)N(C)CC(=O)N[C@@H]([C@@H](C)CC)C(=O)N[C@H](C)C(=O)O1	0.000216 nM	0.025 nM	2e-05 nM	
C/C=C(\C)[C@H]1OC(=O)[C@@H](C)NC(=O)[C@H]([C@@H](C)CC)NC(=O)CN(C)C(=O)[C@@H](Cc2ccc(Cl)cc2)N(C)C(=O)[C@H](C)NC(=O)[C@@H](CC(C)C)OC(=O)/C(C)=C/C[C@H](OCSC)[C@@H]1C	7.1 nM	6.5 nM	0.73 nM	
C/C=C(\C)[C@@H](OC(=O)[C@@H](C)N)[C@@H](C)C(C/C=C(\C)C(=O)O[C@H](CC(C)C)C(=O)N[C@@H](C)C(=O)N(C)[C@H](Cc1ccccc1)C(=O)N(C)CC(=O)N[C@H](C(=O)O)[C@@H](C)CC)OCSC (single isomer, unassigned)	> 10000 nM	> 10000 nM	> 10000 nM	
